The values that follow are results of earlier work, collected in US20250339403A1, “Tryptamine Formulations and Uses Thereof” (Natural MedTech Pty Ltd, priority 2022, published 2025).

Like-named read-outs stand apart in the source and are kept apart here.

Assay in series [1]: not given
The source holds these as a separate data set.

The conditions of series [2]: weight-to-weight basis.
For series [3] the following is noted: in vivo.
Another series concerns MAO. To be noted: after administration.

Take `CN(C)CCc1c[nH]c2ccccc12` [DMT, N,N-dimethyltryptamine]: the psychotropic effects entry (after oral consumption) is “not experienced”. In addition, for the setting “after smoking an equivalent dose”, the psychotropic effects result is reported as “noted”. Also, under “inhaled free-base DMT (0.07-0.28 mg/kg)”, the effectiveness result is “have not shown effectiveness”. In addition, the effectiveness entry (rectally administered (1.7 mg/kg of the bioxalate salt)) is listed as “have not shown effectiveness”. In series [1] (after oral administration), the “share of recovered compounds that was DMT-N-oxide (DMT-NO)” value is 3%; the “share of recovered compounds that were MAO-dependent IAA” value is recorded as 97%; the “unmetabolized DMT in blood samples and urine” value is on record as “no unmetabolized DMT”. The “share of recovered metabolites that were MAO-dependent IAA” value in series [1] (smoking DMT) is given as 63%.
`CN(C)CCc1c[nH]c2cccc(O)c12` [Psilocin, 3-[2-(dimethylamino)ethyl]-1H-indol-4-ol]: the “potency relative to psilocybin” value in series [2] was “about 1.4 times”.
Take `COc1ccc2[nH]cc(CCN(C)C)c2c1` [Formulation 5-MeO-DMT, 5-methoxy-N,N-dimethyltryptamine]: the “amount required to induce hallucinations” value runs as follows: (inhalation) 6 to 20 mg; (intravenous injection) 0.7 to 3.1 mg; (oral administration) around 30 mg; (sublingual or intranasal insufflation) around 10 mg.
With `O=C(NCCN1CCOCC1)c1ccc(Cl)cc1` [Moclobemide, 4-chloro-N-(2-morpholin-4-ylethyl)benzamide], in series [3], the half-life entry is reported as “about 2 hours”. Besides, the “time by which inhibition of MAO is completely absent” value in the series with MAO is at most 24 h.
